Each structure is given as a SMILES string. pIC50: −log10 of the molar value.

What is called pIC50 is the IC50 on a negative log10 scale, so that one unit is a factor of ten. Low values mean a high IC50, high ones a low IC50.

The target in one experiment is T1, KRas^WT (Homo sapiens, UniProt P01116).
T1 construct: […]; biotin (biotinylated); purchased Accelegan Inc
In words: KRas binding assay (TR-FRET displacement of Cy5 labelled tracer). A general note: Time-resolved FRET reads energy transfer from a long-lived donor to a nearby acceptor.

A further experiment addresses T2, KRas^G12A (Homo sapiens, UniProt P01116, G12A).
T2 construct: […]; biotin (biotinylated); purchased Accelegan Inc
Described as above.

The next experiment deals with T3, KRas^G12D (Homo sapiens, UniProt P01116, G12D).
T3 construct: […]; biotin (biotinylated); purchased Accelegan Inc
The description is as above.

The target of another experiment is T4, KRas^G12R (Homo sapiens, UniProt P01116, G12R).
T4 construct: […]; biotin (biotinylated); purchased Accelegan Inc
Described as above.

The next experiment has as its target T5, KRas^G12S (Homo sapiens, UniProt P01116, G12S).
T5 construct: […]; biotin (biotinylated); purchased Accelegan Inc
The experiment is described as above.

Another experiment has as its target T6, KRas^G12V (Homo sapiens, UniProt P01116, G12V).
T6 construct: […]; biotin (biotinylated); purchased Accelegan Inc
The experiment is described as above.

The next experiment deals with KRas^G12C (Homo sapiens, UniProt P01116, G12C). In words: biochemical.
A further experiment addresses KRas^G13D (Homo sapiens, UniProt P01116, G13D). In words: biochemical.
For another experiment, the target named is KRas^Q61H (Homo sapiens, UniProt P01116, Q61H). In words: biochemical.
Sequence of KRas^Q61H (P01116 1-169 isoform P01116-2 Q61H): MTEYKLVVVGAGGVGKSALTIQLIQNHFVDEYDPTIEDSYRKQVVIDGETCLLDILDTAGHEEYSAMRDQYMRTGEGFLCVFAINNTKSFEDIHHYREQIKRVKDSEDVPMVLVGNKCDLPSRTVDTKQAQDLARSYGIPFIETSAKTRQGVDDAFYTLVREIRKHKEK

T5 sequence (P01116 1-169 isoform P01116-2 G12S): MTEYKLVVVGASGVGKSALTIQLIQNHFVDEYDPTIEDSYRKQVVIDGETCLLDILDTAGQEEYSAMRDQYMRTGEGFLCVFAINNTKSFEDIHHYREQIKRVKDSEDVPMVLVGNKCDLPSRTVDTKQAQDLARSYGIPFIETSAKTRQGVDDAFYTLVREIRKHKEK
T1 sequence (P01116 1-169 isoform P01116-2): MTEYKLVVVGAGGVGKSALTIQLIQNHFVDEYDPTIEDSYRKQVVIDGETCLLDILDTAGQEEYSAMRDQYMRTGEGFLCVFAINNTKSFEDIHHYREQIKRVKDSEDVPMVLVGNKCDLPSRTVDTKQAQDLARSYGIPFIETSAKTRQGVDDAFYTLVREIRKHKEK
Sequence of KRas^G12C (P01116 1-169 isoform P01116-2 G12C): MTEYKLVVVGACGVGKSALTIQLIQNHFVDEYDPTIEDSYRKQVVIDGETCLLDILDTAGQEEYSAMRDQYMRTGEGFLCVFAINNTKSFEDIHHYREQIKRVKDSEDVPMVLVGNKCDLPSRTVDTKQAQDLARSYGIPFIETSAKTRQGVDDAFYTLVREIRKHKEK
Sequence of KRas^G13D (P01116 1-169 isoform P01116-2 G13D): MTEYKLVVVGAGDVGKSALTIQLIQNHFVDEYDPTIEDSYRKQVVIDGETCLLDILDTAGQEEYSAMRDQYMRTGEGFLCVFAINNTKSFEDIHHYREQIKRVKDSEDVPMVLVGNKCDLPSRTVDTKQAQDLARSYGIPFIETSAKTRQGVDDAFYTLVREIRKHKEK
T3 sequence (P01116 1-169 isoform P01116-2 G12D): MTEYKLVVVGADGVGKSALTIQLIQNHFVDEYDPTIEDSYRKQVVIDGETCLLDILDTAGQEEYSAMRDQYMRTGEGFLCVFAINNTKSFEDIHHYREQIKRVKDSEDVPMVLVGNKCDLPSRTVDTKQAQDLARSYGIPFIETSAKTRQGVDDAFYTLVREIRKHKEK
T6 sequence (P01116 1-169 isoform P01116-2 G12V): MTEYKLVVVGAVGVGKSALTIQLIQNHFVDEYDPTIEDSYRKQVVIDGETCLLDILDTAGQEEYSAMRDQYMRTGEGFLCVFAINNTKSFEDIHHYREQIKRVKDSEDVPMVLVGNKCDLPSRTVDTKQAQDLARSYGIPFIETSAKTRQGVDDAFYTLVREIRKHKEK
T4 sequence (P01116 1-169 isoform P01116-2 G12R): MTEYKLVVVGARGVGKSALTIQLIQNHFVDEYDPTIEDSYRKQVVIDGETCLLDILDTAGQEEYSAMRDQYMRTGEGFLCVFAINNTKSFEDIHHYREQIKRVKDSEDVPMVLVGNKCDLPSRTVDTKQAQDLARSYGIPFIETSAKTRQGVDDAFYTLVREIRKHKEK
T2 sequence (P01116 1-169 isoform P01116-2 G12A): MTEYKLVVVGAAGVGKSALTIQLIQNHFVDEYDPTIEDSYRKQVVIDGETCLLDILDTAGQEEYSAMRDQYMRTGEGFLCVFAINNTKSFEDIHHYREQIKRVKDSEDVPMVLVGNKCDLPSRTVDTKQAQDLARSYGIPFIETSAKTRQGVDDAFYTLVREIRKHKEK
Method for KRas^G12A: (§1) The ability of a compound to bind to KRas was measured using a TR-FRET displacement assay. […] After a 60-minute incubation at room temperature, the reaction was measured using a BMG LABTECH CLARIO star Plus via TR-FRET. […] The POC values were fit to a 4-parameter IC50 equation and the IC50 value reported.
Method for KRas^G12C: as §1
Method for KRas^G12D: as §1
Method for KRas^G12R: as §1
Method for KRas^G12S: as §1
Method for KRas^G12V: as §1
Method for KRas^G13D: as §1
Method for KRas^Q61H: as §1
Method for KRas^WT: as §1

On to `CCc1cccc2cccc(N3CCc4c(nc(OCC56CCCN5CCC6)nc4N4CCCC5(CC(=O)N5)C4)C3)c12` (stereo not drawn) [Example 16, 6-(7-(8-ethylnaphthalen-1-yl)-2-((hexahydro-1H-pyrrolizin-7a-yl)methoxy)-5,6,7,8-tetrahydropyrido[3,4-d]pyrimidin-4-yl)-1,6-diazaspiro[3.5]nonan-2-one], for which the pIC50 on KRas^WT is 7.18; on KRas^G12A, 7.35; on KRas^G12D, 7.20; at KRas^G12R it was 7.55; at KRas^G12S, 7.35; on KRas^G12V it was 7.74. Further, the pIC50 was 7.43 against KRas^G12C, 7.19 on KRas^G13D and 7.26 on KRas^Q61H.
As for `CCc1cccc2cccc(N3CCc4c(nc(OCC56CCCN5CCC6)nc4N4CC5CC(O)CC4C5)C3)c12` (stereo not drawn) [Example 41, 6-(7-(8-ethylnaphthalen-1-yl)-2-((hexahydro-1H-pyrrolizin-7a-yl)methoxy)-5,6,7,8-tetrahydropyrido[3,4-d]pyrimidin-4-yl)-6-azabicyclo[3.2.1]octan-3-ol], the pIC50 on KRas^WT was 6.27; at KRas^G12A, 6.34; on KRas^G12D it was 5.89; at KRas^G12R, 6.61; on KRas^G12S, 6.59; on KRas^G12V, 6.69. Further, the pIC50 was 6.28 at KRas^G12C, 6.23 at KRas^G13D and 6.16 against KRas^Q61H.
For the compound `CCc1cccc2cccc(N3CCc4c(nc(OCC56CCCN5CCC6)nc4N4CCCC(c5n[nH]c(C)n5)C4)C3)c12` (stereo not drawn) [Example 93, 7-(8-ethylnaphthalen-1-yl)-4-(3-(5-methyl-1H-1,2,4-triazol-3-yl)piperidin-1-yl)-2-((tetrahydro-1H-pyrrolizin-7a(5H)-yl)methoxy)-5,6,7,8-tetrahydropyrido[3,4-d]pyrimidine], the pIC50 at KRas^WT is 6.17; at KRas^G12A it was 6.37; on KRas^G12D it was 5.58; on KRas^G12R, 6.63; at KRas^G12S, 6.16; on KRas^G12V it was 6.15. Further, the values for the pIC50 at KRas^G12C, at KRas^G13D and against KRas^Q61H were 6.59, 5.96 and 5.91, respectively.
As for `CCc1cccc2cccc(N3CCc4c(nc(OCC56CCCN5CCC6)nc4N4CCCC(c5ccn(C)n5)C4)C3)c12` (stereo not drawn) [Example 100, 7-(8-ethylnaphthalen-1-yl)-4-(3-(1-methyl-1H-pyrazol-3-yl)piperidin-1-yl)-2-((tetrahydro-1H-pyrrolizin-7a(5H)-yl)methoxy)-5,6,7,8-tetrahydropyrido[3,4-d]pyrimidine], the pIC50 is 5.94 on KRas^WT; 6.00 at KRas^G12A; 5.35 on KRas^G12D; 6.47 on KRas^G12R; 5.85 on KRas^G12S; 5.69 at KRas^G12V. For the same compound, the values for the pIC50 against KRas^G12C, against KRas^G13D and on KRas^Q61H were 6.08, 5.86 and 5.85, respectively.
For `CCc1cccc2cccc(N3CCc4c(nc(OCC56CCCN5CCC6)nc4N4CCCC(c5ncc(C)s5)C4)C3)c12` (stereo not drawn) [Example 135, 2-(1-(7-(8-ethylnaphthalen-1-yl)-2-((tetrahydro-1H-pyrrolizin-7a(5H)-yl)methoxy)-5,6,7,8-tetrahydropyrido[3,4-d]pyrimidin-4-yl)piperidin-3-yl)-5-methylthiazole], the negative logarithm of the IC50 (pIC50) on KRas^WT was 5.55; on KRas^G12A it was 5.57; on KRas^G12D it was 5.39; on KRas^G12R it was 6.07; on KRas^G12S, 5.62; on KRas^G12V, 5.54. In addition, the pIC50 at KRas^G12C was 5.71; on KRas^G13D it was 5.55; against KRas^Q61H it was 5.55.
Regarding `CCc1cccc2cccc(N3CCc4c(nc(OCC56CCCN5CCC6)nc4N(C)CC4(O)CC4)C3)c12` [Example 98, 1-(((7-(8-ethylnaphthalen-1-yl)-2-((tetrahydro-1H-pyrrolizin-7a(5H)-yl)methoxy)-5,6,7,8-tetrahydropyrido[3,4-d]pyrimidin-4-yl)(methyl)amino)methyl)cyclopropan-1-ol], the negative-log IC50 (pIC50) at KRas^WT is 6.35; on KRas^G12A, 6.34; at KRas^G12D, 5.97; on KRas^G12R it was 6.29; at KRas^G12S, 6.32; at KRas^G12V, 6.47. Moreover, the pIC50 on KRas^G12C was 6.48; against KRas^G13D, 6.20; against KRas^Q61H it was 6.27.
`CCc1cccc2cccc(N3CCc4c(nc(OCC56CCCN5CCC6)nc4N4CCCC(c5n[nH]c(C6CC6)n5)C4)C3)c12` (stereo not drawn) [Example 108, 4-(3-(5-cyclopropyl-1H-1,2,4-triazol-3-yl)piperidin-1-yl)-7-(8-ethylnaphthalen-1-yl)-2-((tetrahydro-1H-pyrrolizin-7a(5H)-yl)methoxy)-5,6,7,8-tetrahydropyrido[3,4-d]pyrimidine]: the pIC50 at KRas^WT was 5.81; at KRas^G12A it was 6.18; on KRas^G12D it was 5.39; on KRas^G12R it was 6.42; at KRas^G12S, 6.01; on KRas^G12V, 6.02. Besides, the results for the pIC50 against KRas^G12C, against KRas^G13D and at KRas^Q61H were 6.31, 5.89 and 5.80, respectively.
For the compound `CCc1cccc2cccc(N3CCc4c(nc(OCC56CCCN5CCC6)nc4N4CCOCC(C)(O)C4)C3)c12` (stereo not drawn) [Example 22, 4-(7-(8-ethylnaphthalen-1-yl)-2-((hexahydro-1H-pyrrolizin-7a-yl)methoxy)-5,6,7,8-tetrahydropyrido[3,4-d]pyrimidin-4-yl)-6-methyl-1,4-oxazepan-6-ol], the pIC50 on KRas^WT is 6.98; at KRas^G12A it was 7.03; at KRas^G12D it was 7.17; at KRas^G12R, 6.91; at KRas^G12S, 7.05; at KRas^G12V, 7.15. The pIC50 was 7.14 against KRas^G12C, 7.00 on KRas^G13D and 7.02 against KRas^Q61H.
For the compound `CCc1cccc2cccc(N3CCc4c(nc(OCC56CCCN5CCC6)nc4N4CCCC(c5n[nH]cc5NC(C)=O)C4)C3)c12` (stereo not drawn) [Example 143, N-(3-(1-(7-(8-ethylnaphthalen-1-yl)-2-((tetrahydro-1H-pyrrolizin-7a(5H)-yl)methoxy)-5,6,7,8-tetrahydropyrido[3,4-d]pyrimidin-4-yl)piperidin-3-yl)-1H-pyrazol-4-yl)acetamide], the pIC50 at KRas^WT was 5.69; at KRas^G12A, 5.65; at KRas^G12D it was 5.23; at KRas^G12R, 5.70; at KRas^G12S it was 5.61; on KRas^G12V it was 5.38. For the same compound, the pIC50 at KRas^G12C was 5.72; at KRas^G13D, 5.88; against KRas^Q61H, 5.90.
In the case of `CCc1cccc2cccc(N3CCc4c(nc(OCC56CCCN5CCC6)nc4N4CCCC(O)(C(F)(F)F)C4)C3)c12` (stereo not drawn) [Example 110, 1-(7-(8-ethylnaphthalen-1-yl)-2-((tetrahydro-1H-pyrrolizin-7a(5H)-yl)methoxy)-5,6,7,8-tetrahydropyrido[3,4-d]pyrimidin-4-yl)-3-(trifluoromethyl)piperidin-3-ol], the pIC50 is 6.40 at KRas^WT; 6.23 on KRas^G12A; 6.14 at KRas^G12D; 6.10 at KRas^G12R; 6.26 on KRas^G12S; 6.25 at KRas^G12V. In addition, the pIC50 at KRas^G12C is 6.19; on KRas^G13D it was 6.39; against KRas^Q61H, 6.31.

The record behind these values is patent US12421253B2 (Mirati Therapeutics, Inc., priority 2020, dated 2025).
